# Tests used:
# [1] = tested on: Clostridium acetobutylicum ATCC 824; assay: Growth (optical density at 600 nm) of sequential batch cultures; format: cell-based
# Experimental: (§1) Bacterial strains and media. Clostridium acetobutylicum ATCC 824 and C. beijerinckii NCIMB 8052 are available from several commercial microbial culture collections including the American Type Culture Collection (ATCC), Manassas, Va., USA. The strains were grown at 30° C. or 37° C. in YE broth, which contained, per liter: 5.0 g yeast extract, 2.5 g casamino acids, 1.0 g L-asparagine, 0.5 g cysteine.HCl, 56 mg K2HPO4, 56 mg KH2PO4, 82 mg anhydrous MgSO4, 8 mg FeSO4.H2O, 6 mg MnSO4.H2O and 10 g glucose. Alternatively, strains were grown in YEPG broth, which was identical to YE expect that K2HPO4 and KH2PO4 were increased to 145 mg/L each and glucose was increased to 60 g/L. The pH of the media was adjusted to 7.2 using 45% KOH prior to sterilization by autoclaving. Media were solidified by addition of 1.5% Bacteriological Agar, Actimedia Manufacturers, Inc., Lansing, Mich. All cultures were grown in anaerobic conditions using the AnaeroPack System, Mitsubishi Gas Chemical Co., Inc., Japan, and GasPak EZ Gas Generating Sachets, Becton, Dickinson and Co., Sparks, Md. Spore stocks were kept at room temperature on agar-solidified media and were activated by suspending spores in 0.5 mL to 1.0 mL of medium followed by heating for 10 min at 80° C. before inoculation into growth medium.
# (§2) Growth and pH measurements. Growth of bacterial cultures was measured spectrophotometrically using optical density at 600 nm and pH of cell-free culture supernatants was measured using a hand-held Shindengen ISFET pH Meter KS501, Shendengen Electric Manufacturing Co., Ltd., Bannockburn, Ill.
# (§3) Effect of peptide SEQ ID NO:143 addition on sequential batch cultures of C. acetobutylicum ATCC 824 grown at 30° C. Spores of C. acetobutylicum ATCC 824 were germinated and grown overnight at 30° C. under anaerobic conditions in YEPG medium. After about 24 h of growth, 75 μL of the culture was transferred (transfer 1) to each of four flasks that contained 10 mL of YEPG and either had no treatment or were treated with peptide SEQ ID NO:143 (see Table 8 and FIG. 1) at 1 nM, 10 nM or 50 nM. Thereafter, 75 μL of each culture was transferred, at the same time, every 24-48 h to 10 mL of fresh YEPG that contained the same peptide treatment or no treatment. Each culture was stopped after 96 hours of incubation and optical density, pH and ceric ion reactive chemicals were measured. Sequential batch culturing was continued through 5 transfers at which point the untreated culture and those treated with 1 nM and 10 nM of peptide SEQ ID NO:143 had stopped growing (Table 9).
# (§4) Effect of peptide SEQ ID NO:143 addition on sequential batch cultures of C. acetobutylicum ATCC 824 grown at 37° C. Spores of C. acetobutylicum ATCC 824 were germinated and grown overnight at 37° C. under anaerobic conditions in YEPG medium that either contained 50 nM of peptide SEQ ID NO:143 or no added peptide. After about 24 h of growth, 10 μL of the untreated culture was transferred (transfer 1) to each of two flasks that contained 10 mL of YEPG with either no treatment or with 50 nM peptide SEQ ID NO:143. At the same time, 10 μL of the culture that was germinated in the presence of peptide SEQ ID NO:143 was also transferred to 10 mL of YEPG that contained 50 nM of peptide SEQ ID NO:143. Thereafter, 10 μL of each culture was transferred, at the same time, every 24-48 h to 10 mL of fresh YEPG that contained the same peptide treatment or no treatment. Each culture was stopped after 72 hours if incubation and optical density, pH and ceric ion reactive chemicals were measured. Sequential batch culturing was continued through 3 transfers at which point the untreated culture and the culture that was germinated and transferred in 50 nM of peptide were still growing, while the culture that was treated with peptide after germination had stopped growing (Table 15 and FIG. 7).
# C. acetobutylicum = assay: Estimate of extended serial propagation in continuous culture from sequential batch transfers; parameters: species or system Clostridium acetobutylicum; settings: dilution rate 0.05/hour, from about 140 hours without peptide
# Experimental: Under these experimental conditions, and knowledge of the growth of C. acetobutylicum in culture, it was determined that each sequential transfer was equivalent to about seven bacterial generations ([…], Applied and Environmental Microbiology 59:4198-4202, 1993). […] An estimate of extended serial propagation in continuous culture may be expressed as extended time in continuous culture by taking the dilution rate into account. In continuous culture, the time for one generation is equal to the inverse of the dilution rate.
# [2] = tested on: Clostridium acetobutylicum ATCC 824; assay: Final pH of cell-free culture supernatants of sequential batch cultures; format: cell-based
# Experimental: as §1, §2, §3, §4
# [3] = 1 nM peptide, transfer 1, 96 h, 30° C.
# [4] = 1 nM peptide, transfer 2, 96 h, 30° C.
# [5] = 1 nM peptide, transfer 3, 96 h, 30° C.
# [6] = 1 nM peptide, transfer 4, 96 h, 30° C.
# [7] = 1 nM peptide, transfer 5, 96 h, 30° C.
# [8] = 10 nM peptide, transfer 1, 96 h, 30° C.
# [9] = 10 nM peptide, transfer 2, 96 h, 30° C.
# [10] = 10 nM peptide, transfer 3, 96 h, 30° C.
# [11] = 10 nM peptide, transfer 4, 96 h, 30° C.
# [12] = 50 nM peptide added after germination, transfer 1, 72 h, 37° C.
# [13] = 50 nM peptide added after germination, transfer 2, 72 h, 37° C.
# [14] = 50 nM peptide added after germination, transfer 3, 72 h, 37° C.
# [15] = 50 nM peptide, transfer 1, 96 h, 30° C.
# [16] = 50 nM peptide, transfer 2, 96 h, 30° C.
# [17] = 50 nM peptide, transfer 3, 96 h, 30° C.
# [18] = 50 nM peptide, transfer 4, 96 h, 30° C.
# [19] = 50-50: germinated and transferred in 50 nM peptide, transfer 1, 72 h, 37° C.
# [20] = 50-50: germinated and transferred in 50 nM peptide, transfer 2, 72 h, 37° C.
# [21] = 50-50: germinated and transferred in 50 nM peptide, transfer 3, 72 h, 37° C.
# [22] = 50-50: spores germinated in 50 nM peptide, transfer 0 (germinated culture), 72 h, 37° C.
substance,measurement,setting,value
SYPGWSW [Peptide SEQ ID NO:143],Last sequential transfer through which growth was allowed,"[1]; 1 nM peptide, 30° C., untreated culture did not grow after the second transfer",third transfer
same,Optical density at 600 nm of culture broths,[1]; [3],0.005
same,Optical density at 600 nm of culture broths,[1]; [4],2.274
same,Optical density at 600 nm of culture broths,[1]; [5],2.165
same,Optical density at 600 nm of culture broths,[1]; [6],0.044
same,Optical density at 600 nm of culture broths,[1]; [7],0.004
same,Last sequential transfer through which growth was allowed,"[1]; 10 nM peptide, 30° C.",fourth transfer
same,Optical density at 600 nm of culture broths,[1]; [8],2.001
same,Optical density at 600 nm of culture broths,[1]; [9],2.245
same,Optical density at 600 nm of culture broths,[1]; [10],2.379
same,Optical density at 600 nm of culture broths,[1]; [11],2.266
same,Optical density at 600 nm of culture broths,"[1]; 10 nM peptide, transfer 5, 96 h, 30° C.",0.028
same,Optical density at 600 nm of culture broths,[1]; [12],1.891
same,Optical density at 600 nm of culture broths,[1]; [13],0.011
same,Optical density at 600 nm of culture broths,[1]; [14],0.100
same,Last sequential transfer through which growth was extended,"[1]; 50 nM peptide, 30° C.",fifth transfer
same,Optical density at 600 nm of culture broths,[1]; [15],1.879
same,Optical density at 600 nm of culture broths,[1]; [16],2.089
same,Optical density at 600 nm of culture broths,[1]; [17],2.313
same,Optical density at 600 nm of culture broths,[1]; [18],2.187
same,Optical density at 600 nm of culture broths,"[1]; 50 nM peptide, transfer 5, 96 h, 30° C.",2.173
same,Number of sequential transfers compared with a culture without added peptide,"[1]; 30° C., sequential batch cultures",at least four more times
same,Optical density at 600 nm of culture broths,[1]; [19],1.715
same,Optical density at 600 nm of culture broths,[1]; [20],1.858
same,Optical density at 600 nm of culture broths,[1]; [21],1.485
same,Optical density at 600 nm of culture broths,[1]; [22],2.121
same,Expected time in continuous culture with peptide,C. acetobutylicum,about 700 hours
same,Final pH of culture broths,[2]; [3],6.0
same,Final pH of culture broths,[2]; [4],4.4
same,Final pH of culture broths,[2]; [5],4.4
same,Final pH of culture broths,[2]; [6],6.0
same,Final pH of culture broths,[2]; [7],6.0
same,Final pH of culture broths,[2]; [8],4.4
same,Final pH of culture broths,[2]; [9],4.4
same,Final pH of culture broths,[2]; [10],4.5
same,Final pH of culture broths,[2]; [11],4.5
same,Final pH of culture broths,"[2]; 10 nM peptide, transfer 5, 96 h, 30° C., listed as SEQ ID NO: 143",6.0
same,Final pH of culture broths,"[2]; 10 nM peptide, transfer 5, 96 h, 30° C., listed as SEQ ID NO:143",5.9
same,Final pH of culture broths,[2]; [12],4.4
same,Final pH of culture broths,[2]; [13],6.0
same,Final pH of culture broths,[2]; [14],5.5
same,Final pH of culture broths,[2]; [15],4.4
same,Final pH of culture broths,[2]; [16],4.6
same,Final pH of culture broths,[2]; [17],4.5
same,Final pH of culture broths,[2]; [18],4.4
same,Final pH of culture broths,"[2]; 50 nM peptide, transfer 5, 96 h, 30° C., listed as SEQ ID NO: 143",4.3
same,Final pH of culture broths,"[2]; 50 nM peptide, transfer 5, 96 h, 30° C., listed as SEQ ID NO:143",remained low
same,Final pH of culture broths,[2]; [19],4.5
same,Final pH of culture broths,[2]; [20],3.8
same,Final pH of culture broths,[2]; [21],4.6
same,Final pH of culture broths,[2]; [22],4.1

# From patent US20120107916A1, “METHODS AND COMPOSITIONS FOR AFFECTING THE DIFFERENTIATION OF CLOSTRIDIA IN CULTURE” (priority 2009, published 2012)
